Data taken from publication doi:10.1101/841569v1 (biorxiv, 2019).

Columns and labels:
Mtb-MenD [1] = biological target: T1, Mtb-MenD (Mycobacterium tuberculosis, UniProt P9WK11)
Mtb-MenD [2] = biological target: T1, Mtb-MenD; experiment: biochemical
Mtb-MenD [3] = biological target: T1, Mtb-MenD; remark: listed apart in the source

T1 sequence (P9WK11 whole entry): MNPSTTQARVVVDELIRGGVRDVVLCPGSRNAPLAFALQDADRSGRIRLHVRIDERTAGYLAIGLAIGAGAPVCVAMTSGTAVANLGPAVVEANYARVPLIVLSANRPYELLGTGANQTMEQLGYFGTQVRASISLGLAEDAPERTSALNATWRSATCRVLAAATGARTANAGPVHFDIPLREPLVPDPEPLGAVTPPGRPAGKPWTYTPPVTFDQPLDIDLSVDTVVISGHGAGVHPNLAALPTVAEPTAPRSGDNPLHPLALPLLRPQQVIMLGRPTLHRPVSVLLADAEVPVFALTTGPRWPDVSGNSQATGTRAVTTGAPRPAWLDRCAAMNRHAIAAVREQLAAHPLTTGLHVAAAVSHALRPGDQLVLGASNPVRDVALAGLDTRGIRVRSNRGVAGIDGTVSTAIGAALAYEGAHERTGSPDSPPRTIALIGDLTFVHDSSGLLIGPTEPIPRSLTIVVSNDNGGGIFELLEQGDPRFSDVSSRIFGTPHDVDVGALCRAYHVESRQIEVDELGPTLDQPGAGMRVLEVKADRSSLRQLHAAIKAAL

Row | SMILES | % of non-inhibited activity at 20 μM (Mtb-MenD [1]) [%] | IC50 (Mtb-MenD [2]) [nM] | X-ray crystal structure (co-crystallised, 1 mM ThDP) (Mtb-MenD [3])
1 | O=C(O)c1cc(O)c2ccccc2c1O [DHNA] | 24 ± 1 | 53 | 
2 | Cc1ncc(C[n+]2csc(CCOP(=O)(O)OP(=O)(O)O)c2C)c(N)n1 [ThDP] |  |  | acofactor (ThDP) bound DHNA complex
